The values that follow come from PMC9995496, “A screen for MeCP2-TBL1 interaction inhibitors using a luminescence-based assay” (Scientific Reports, 2023).

The target in the first test is T1, MeCP2-TBL1 interaction (MeCP2-SmBiT / TBL1-LgBiT) (Mus musculus, UniProt Q9QXE7).
T1 construct: expressed in transfected cells; crude lysate used as a cell-free assay
T1 sequence (Q9QXE7 166-527): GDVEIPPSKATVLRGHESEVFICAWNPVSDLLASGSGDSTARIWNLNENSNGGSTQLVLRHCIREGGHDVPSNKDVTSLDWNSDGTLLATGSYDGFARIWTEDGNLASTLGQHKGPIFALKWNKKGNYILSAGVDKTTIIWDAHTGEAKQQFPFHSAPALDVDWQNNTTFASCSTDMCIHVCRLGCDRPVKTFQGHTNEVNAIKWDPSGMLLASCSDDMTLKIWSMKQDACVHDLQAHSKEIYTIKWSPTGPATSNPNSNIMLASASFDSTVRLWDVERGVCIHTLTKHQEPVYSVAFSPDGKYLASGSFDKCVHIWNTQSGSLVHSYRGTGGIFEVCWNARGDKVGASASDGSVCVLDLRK
As to the kind of experiment: MeCP2-TBL1 NanoLuc luciferase complementation assay (cell-free, extracts of transfected HEK293 cells).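 Also: each compound tested at 20 µM final concentration.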 The conditions noted are these: primary screen of Asinex library, single well per compound. The class given is binding, human. A digest of the protocol:
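Cell-free split NanoLuc: lysate of HEK293 cells co-expressing the MeCP2 C-terminal half-SmBiT and TBL1 WD domain-LgBiT, mixed 1:1 with furimazine. After 30 min at room temperature, luminescence was plate-median normalized.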
With `CCOc1cccc2c1OC(C)(C)[C@H]1CC3(CCN(Cc4cnc(NC)nc4)CC3)CO[C@H]21` [BDG_33691710], the Inhibition percent was -4.17. For `COc1ccc2c(c1)OC(C)(C)[C@H]1CC3(CCN(C(=O)CCn4ccnc4)CC3)CO[C@H]21` [BDG_33691777], the Inhibition percent was -0.71.

As to `CC1(C)Oc2ccc(Cl)cc2[C@H]2OCC3(CCN(C(=O)CNC(=O)c4ccccc4)CC3)C[C@@H]21` [BDG_33694526], the Inhibition percent is -2.33.

For the molecule `COc1cccc2c1OC(C)(C)[C@H]1CC3(CCN(C(=O)CCCN4C(=O)CNC4=O)CC3)CO[C@H]21` [BDG_33695254], the Inhibition percent is listed as -4.47. On the same count and under the same terms, with `CC1(C)Oc2ccccc2[C@H]2OCC3(CCN(C(=O)c4ccnc(N5CCCC5)c4)CC3)C[C@@H]21` [BDG_33695760] the figure was 0.33. As to `CCN(CC)S(=O)(=O)N1CCC2(C/C=C/Cc3ccccc3OCC(=O)NC2)CC1` [BDG_33697034], the Inhibition percent was 1.72. For the molecule `Cc1cc(C)n(CCCC(=O)N2CCCC[C@]3(C)NC(=O)CC[C@H]23)n1` [BDG_33850399], the Inhibition percent is listed as 0.88. Consider `Cc1cnn(CC(=O)N2CCC3(CC2)Oc2ccc(Cl)cc2[C@H]2OCCC[C@@H]23)c1` [BDG_33900405], for which the Inhibition percent is given as 5.31. In the case of `Cc1ccc2c(c1)OC1(CCN(Cc3ccc(Cl)cn3)CC1)[C@H]1CCCO[C@H]21` [BDG_33900424], the Inhibition percent turned out to be 0.92. As to `CC1(C)Oc2ccccc2[C@@H]2O[C@@H]3CCN(C(=O)CCN4CCCC4=O)[C@@H]3C[C@H]21` [BDG_33901240], the Inhibition percent was 0.48. Turning to `CC(=O)N[C@H](CC(N)=O)C(=O)N1CC[C@@H]2O[C@@H]3c4ccccc4OC(C)(C)[C@H]3C[C@@H]2C1` [BDG_33905309], the Inhibition percent is given as 0.54. As for `C[C@@H]1CC[C@@H]2[C@@H](C1)c1c(ccc(C(=O)NCC(C)(C)CN3CCCC3)c1O)OC2(C)C` [BDG_34018827], the Inhibition percent worked out at 1.80. For the molecule `CC(C)CCC[C@@]1(C)Oc2cc(O)ccc2[C@H]2OCC3(CCNCC3)C[C@@H]21` [BDG_34020305], the Inhibition percent is 19.22. In the case of `Cc1c(CN2C[C@H](c3ccc(F)cc3)[C@@H](O)[C@H]2C(=O)NCCc2ccccc2)[nH]c2ccc(F)cc12` [BDG_34027529], the Inhibition percent was found to be 6.14.

The same test, now with this note: primary screen of the Asinex library, sheet "Sargen output Asinex library", one well per compound.
Turning to `COc1cccc2c1OC(C)(C)[C@H]1CC3(CCN(C(=O)CCCc4ccncc4)CC3)CO[C@H]21` [BDG_33693373], the Inhibition percent was -2.47%. On to `Cc1n[nH]c(C)c1S(=O)(=O)N1CCC2(CC1)CO[C@@H]1c3ccccc3OC(C)(C)[C@H]1C2` [BDG_33694386], for which the Inhibition percent is 2.05%. For `COc1cccc2c1OC(C)(C)[C@H]1CC3(CO[C@H]21)CN(Cc1cn(C)cn1)C3` [BDG_33739186], the Inhibition percent is on record as -0.50%.

With `CC(C)(C)OC(=O)N1CC[C@H]2O[C@H]3c4ccccc4OC(C)(C)[C@@H]3C[C@@]2(CO)C1` [BDG_33896521], the Inhibition percent turned out to be 3.83%. The same measure, in the same setting: to `COc1cccc2c1OC1(CCN(C)CC1)[C@H]1CCCO[C@H]21` [BDG_33900051] belongs -1.32%; to `Oc1cccc2c1OC1(CCN(Cc3ccncc3)CC1)[C@H]1CCCO[C@H]21` [BDG_33900152], -3.60%; to `COC(C)(C)C(=O)N1CCC2(CC1)Oc1c(O)cccc1[C@H]1OCCC[C@@H]12` [BDG_33900229], -2.79%. For the molecule `CC(C)N1CC[C@H]2O[C@H]3c4ccccc4OC(C)(C)[C@@H]3C[C@H]21` [BDG_33900670], the Inhibition percent is on record as -3.00%.

In the case of `COCC(=O)N1CC[C@H]2O[C@H]3c4ccccc4OC(C)(C)[C@@H]3C[C@H]21` [BDG_33900725], the Inhibition percent is given as 0.0324%.

Take `Clc1ccc2c(c1)[C@H]1OCCC[C@@H]1C1(CCN(CC3CCOCC3)CC1)O2` [BDG_33901423]: the Inhibition percent is -1.08%. On to `C[C@@H]1CC[C@@H]2[C@@H](C1)c1c(ccc(C(=O)O)c1O)OC2(C)C` [BDG_33904752], for which the Inhibition percent is 2.57%. `O=[N+]([O-])c1ccc2c(c1)[C@H]1OCCC[C@@H]1C1(CCCCC1)O2` [BDG_33907582]: the Inhibition percent is given as 0.74%.

As for `CC(C)(C)OC(=O)N1CC[C@H]2O[C@H]3c4ccc(O)cc4OC(C)(C)[C@@H]3C[C@@H]2C1` [BDG_33953342], the Inhibition percent was 2.11%. Consider `CC1(C)Oc2ccccc2[C@@H]2O[C@@H]3CCCN[C@@H]3C[C@H]21` [BDG_33956274], for which the Inhibition percent was -3.58%. `CCOc1cccc2c1OC(C)(C)[C@@H]1C[C@@H]3CNCC[C@H]3O[C@@H]21` [BDG_33956280]: the Inhibition percent is -0.94%.

In the case of `COc1cccc2c1OC(C)(C)[C@H]1CC3(CCNCC3)[C@H](C)O[C@H]21` [BDG_33959669], the Inhibition percent stood at 0.05%. As to `C[C@@H]1CC[C@@H]2[C@@H](O1)c1cc(C(=O)NCCc3ccccc3)ccc1OC2(C)C` [BDG_34018895], the Inhibition percent is listed as -0.86%. Turning to `O=C(NCCc1ccccc1)[C@@H]1[C@H](O)[C@@H](c2ccc(F)cc2)CN1C(=O)CCc1ccc(Cl)cc1` [BDG_34023221], the Inhibition percent was found to be 2.58%. Still for that read-out and setting: to `C[C@@H]1CC[C@@H]2[C@@H](O1)c1cc(OCc3ccccc3)c(C=O)cc1OC2(C)C` [BDG_34027484] belongs 0.0122%; to `C[C@@H]1CC[C@@H]2[C@@H](O1)c1cc(OCc3ccccc3)c(CO)cc1OC2(C)C` [BDG_34027487], -0.0357%; to `CC(C)C[C@H]1CN(C(=O)c2ccc(O)cc2)CC[C@H]1Nc1cccc(Cl)c1` [BDG_34030674], 7.44%.

The same test, now with this note: primary screen of the Asinex library, sheet "Sargen output Asinex library", one well per compound, Batch Ref. 1.
`CCc1cc(C(=O)N2CCC3(CC2)CO[C@@H]2c4cc(OC)ccc4OC(C)(C)[C@H]2C3)no1` [BDG_33691868]: the Inhibition percent came to 2.32%. On to `Cc1ccc2c(c1)OC(C)(C)[C@H]1CC3(CCN(C(=O)CN4CCOCC4)CC3)CO[C@H]21` [BDG_33692107], for which the Inhibition percent was -1.45%.

Regarding `CC1(C)Oc2ccccc2[C@H]2OCC3(CCN(C(=O)CCc4cccnc4)CC3)C[C@@H]21` [BDG_33692190], the Inhibition percent is given as -1.50%. On to `CC1(C)Oc2ccccc2[C@H]2OCC3(CCN(C(=O)c4[nH]nc5c4CCCCC5)CC3)C[C@@H]21` [BDG_33694755], for which the Inhibition percent was determined as 2.01%. Consider `CC1(C)Oc2ccccc2[C@H]2OCC3(CCN(C(=O)c4cccc(-n5cnnc5)c4)CC3)C[C@@H]21` [BDG_33695504], for which the Inhibition percent is given as 0.97%. Consider `COCC(=O)N1CC2(CO[C@@H]3c4cccc(OC)c4OC(C)(C)[C@H]3C2)C1` [BDG_33739062], for which the Inhibition percent is -2.32%. On the same count and under the same terms, to `Cc1cccnc1C(=O)N1CC2(CO[C@@H]3c4ccccc4OC(C)(C)[C@H]3C2)C1` [BDG_33739514] belongs 0.31%.

Turning to `Cc1ccc2c(c1)OC(C)(C)[C@H]1CC3(CO[C@H]21)CN(C(=O)CCn1nc(O)ccc1=O)C3` [BDG_33741109], the Inhibition percent was -2.39%. Turning to `CN(CCOc1ccccc1)C(=O)c1c(O)ccc2c1O[C@@H]1C[C@H]3C[C@H](C3(C)C)[C@]1(O)[C@H]2O` [BDG_33899827], the Inhibition percent is on record as 2.70%. Regarding `Oc1cccc2c1OC1(CCN(Cc3ccccc3)CC1)[C@H]1CCCO[C@H]21` [BDG_33900148], the Inhibition percent is reported as 0.73%. On to `Cc1ccc2c(c1)OC1(CCN(Cc3cscn3)CC1)[C@H]1CCCO[C@H]21` [BDG_33900204], for which the Inhibition percent worked out at 4.69%.

Turning to `COc1cccc2c1OC1(CCN(C(=O)C(C)(C)OC)CC1)[C@H]1CCCO[C@H]21` [BDG_33900230], the Inhibition percent is on record as -2.85%.

As to `COc1cccc2c1OC1(CCN(Cc3cccc(O)c3)CC1)[C@H]1CCCO[C@H]21` [BDG_33900272], the Inhibition percent amounted to 6.42%.

On to `COc1ccccc1C(=O)N1CCC2(CC1)Oc1ccc(Cl)cc1[C@H]1OCCC[C@@H]12` [BDG_33900472], for which the Inhibition percent worked out at 10.01%. Turning to `CS(=O)(=O)c1ccc(CN2CCC3(CC2)Oc2ccc(Cl)cc2[C@H]2OCCC[C@@H]23)cc1` [BDG_33900656], the Inhibition percent is given as -0.96%.

For the molecule `C[C@@H]1CC[C@@H]2[C@@H](C1)c1c(ccc(C(=O)NCCN(C)C)c1O)OC2(C)C` [BDG_33904603], the Inhibition percent stood at 9.91%. For `CC(=O)N[C@@H](Cc1c[nH]c2ccccc12)C(=O)N1CC[C@H]2O[C@H]3c4cc(Cl)ccc4OC(C)(C)[C@@H]3C[C@H]2C1` [BDG_33905586], the Inhibition percent is on record as -0.13%.

For the molecule `CC(C)=CCC[C@@]1(C)Oc2cc(OCCO)ccc2[C@H]2O[C@H]3CCN(C(=O)OC(C)(C)C)C[C@@H]3C[C@@H]21` [BDG_33958723], the Inhibition percent was determined as 5.54%. Take `CC(C)[C@H](NC(=O)[C@H](C)N)C(=O)N1CCC[C@H]2O[C@H]3c4cc(Cl)ccc4OC(C)(C)[C@@H]3C[C@H]21` [BDG_34017951]: the Inhibition percent is -1.63%.

With `CC(C)CCC[C@]1(C)Oc2ccccc2[C@H]2OCC3(CCCN3)C[C@@H]21` (stereo partly shown) [BDG_34020347], the Inhibition percent was 1.89%. Same read-out and setting: with `COC(=O)C[C@H]1CC[C@H]2[C@H](O1)c1cc(-c3ccccc3)ccc1OC2(C)C` [BDG_34023292] the figure was 2.57%; with `COc1ccc2c(c1)OC(C)(C)[C@H]1CC[C@H](C)O[C@H]21` [BDG_34023313], -1.30%; with `CC1(C)Oc2ccc(O)cc2[C@H]2O[C@@H](c3ccccc3)CC[C@@H]21` [BDG_34039634], 6.48%.
